In article PMC9206137, “Synergistic anti-SARS-CoV-2 activity of repurposed anti-parasitic drug combinations” (BMC Pharmacology & Toxicology, 2022):
“And” between values parts separate entries of the source, which are not always exact repeats. Identical values can stand only once.

Key:
SARS-CoV-2 [1] = test: Antiviral activity against SARS-CoV-2 in Vero E6 cells, one-step qRT-PCR (single drugs, two-drug combinations, synergy analysis); settings: for %inhibition (qRT-PCR) / % inhibition: replicates; for % inhibition: Vero E6 cells
SARS-CoV-2 [2] = test: microbe, parasite or virus in culture; type: cell-based; settings: for % inhibition: Calu-3 cells
SARS-CoV-2 [3] = test: Antiviral activity against SARS-CoV-2 in Vero E6 cells, plaque assay; type: cell-based
Calu-3 cells = test: Cell viability assay (MTT) in Calu-3 cells; settings: replicates; for %cell viability: Calu-3; for cell viability: Calu-3 cells
Method: (§1) Subsequently, the cell viability was assessed using MTT dyes (Invitrogen) in duplicate (Supplementary file 1). The procedure was described elsewhere. The viability of drug-treated cells was expressed as percent cell viability relative to 0.5% DMSO-treated cells.

[4] = Cell viability assay (MTT) in Calu-3 cells; settings: human, Calu-3 cells
Method: as §1

Vero E6 cells = test: Cell viability assay (MTT) in Vero E6 cells; settings: replicates; for %cell viability: Vero E6; for cell viability: Vero E6 cells
Method: as §1

[5] = Cell viability assay (MTT) in Vero E6 cells; settings: African green monkey, Vero E6 cells
Method: as §1

For O=C(Nc1ccc([N+](=O)[O-])cc1Cl)c1cc(Cl)ccc1O [Niclosamide, niclosamide], the “%inhibition (qRT-PCR)” value (SARS-CoV-2 [1]; Vero E6, niclosamide 0.00390625 uM) was 21.23% and 16.04% and 7.08%, the “%inhibition (qRT-PCR)” value (SARS-CoV-2 [1]; Vero E6, niclosamide 0.0078125 uM) was 27.36% and 22.17% and 24.53% and the “%inhibition (qRT-PCR)” value (SARS-CoV-2 [1]; Vero E6, niclosamide 0.015625 uM) was 29.25% and 17.92% and 28.30%. For the same compound, the “%inhibition (qRT-PCR)” value (SARS-CoV-2 [1]; Vero E6, niclosamide 0.03125 uM) was 29.72% and 33.96% and 20.28%, the “%inhibition (qRT-PCR)” value (SARS-CoV-2 [1]; Vero E6, niclosamide 0.0625 uM) was 52.36% and 36.32% and 72.26% and the “%inhibition (qRT-PCR)” value (SARS-CoV-2 [1]; Vero E6, niclosamide 0.125 uM) was 95.05% and 87.83% and 93.92%. For the same compound, the “% inhibition” value (SARS-CoV-2 [1]; Niclosamide 0.01125 uM alone) was 6.05% and 30.26% and 19.89% and 3.41%, the “% inhibition” value (SARS-CoV-2 [1]; Niclosamide 0.0225 uM alone) was 31.70% and 37.15% and 50.00% and the “% inhibition” value (SARS-CoV-2 [1]; Niclosamide 0.045 uM alone) was 62.37% and 59.41% and 53.57%. For the same compound, the “% inhibition” value (SARS-CoV-2 [1]; Niclosamide 0.09 uM alone) was 75.85% and 79.12% and 97.76% and 97.32%, the IC50 (SARS-CoV-2 [1]; read-out: IC50 (μM) qRT-PCR, Vero E6, MOI 0.01, 48 hours, single drug) was 0.043 µM and the SI (SARS-CoV-2 [2]; Calu-3) was 28.1. The “%inhibition (plaque assay)” value (SARS-CoV-2 [2]; Calu-3, niclosamide 0.039063 uM, replicates) was 23.81% (2×) and 35.24%, the “%inhibition (plaque assay)” value (SARS-CoV-2 [2]; Calu-3, niclosamide 0.078125 uM, replicates) was 35.24% and 39.05% and the “%inhibition (plaque assay)” value (SARS-CoV-2 [2]; Calu-3, niclosamide 0.15625 uM, replicates) was 35.24% and 42.86% and 20.00%. For the same compound, the “%inhibition (plaque assay)” value (SARS-CoV-2 [2]; Calu-3, niclosamide 0.3125 uM, replicates) was 69.52% and 61.90%, the “%inhibition (plaque assay)” value (SARS-CoV-2 [2]; Calu-3, niclosamide 0.625 uM, replicates) was 61.90% and the “%inhibition (plaque assay)” value (SARS-CoV-2 [2]; Calu-3, niclosamide 1.25 uM, replicates) was 69.52% and 80.95%. For the same compound, the “% inhibition” value (SARS-CoV-2 [2]; Niclosamide 0.05 uM alone, replicates) was 33.33% and 13.33% (2×), the “% inhibition” value (SARS-CoV-2 [2]; Niclosamide 0.10 uM alone, replicates) was 40.00% and the “% inhibition” value (SARS-CoV-2 [2]; Niclosamide 0.40 uM alone, replicates) was 70.00%. For the same compound, the inhibition at 0.039063 µM (SARS-CoV-2 [2]; Severe acute respiratory syndrome coronavirus 2, Calu-3, Calu-3, niclosamide 0.039063 uM, replicates, read-out: %inhibition (plaque assay)) was 31.4%, the inhibition at 0.078125 µM (SARS-CoV-2 [2]; Severe acute respiratory syndrome coronavirus 2, Calu-3, Calu-3, niclosamide 0.078125 uM, replicates, read-out: %inhibition (plaque assay)) was 31.4% and the inhibition at 0.1 µM (SARS-CoV-2 [2]; Severe acute respiratory syndrome coronavirus 2, Calu-3, Calu-3, niclosamide 0.1 uM alone) was 46.7 ± 6.67%. For the same compound, the inhibition at 0.2 µM (SARS-CoV-2 [2]; Severe acute respiratory syndrome coronavirus 2, Calu-3, Calu-3, niclosamide 0.2 uM alone) was 53.3 ± 6.67%, the inhibition at 0.3125 µM (SARS-CoV-2 [2]; Severe acute respiratory syndrome coronavirus 2, Calu-3, Calu-3, niclosamide 0.3125 uM, replicates, read-out: %inhibition (plaque assay)) was 73.3% and the inhibition at 0.4 µM (SARS-CoV-2 [2]; Severe acute respiratory syndrome coronavirus 2, Calu-3, Calu-3, niclosamide 0.4 uM alone) was 61.1 ± 8.39%. For the same compound, the inhibition at 0.625 µM (SARS-CoV-2 [2]; Severe acute respiratory syndrome coronavirus 2, Calu-3, Calu-3, niclosamide 0.625 uM, replicates, read-out: %inhibition (plaque assay)) was 65.7%, the inhibition at 1.25 µM (SARS-CoV-2 [2]; Severe acute respiratory syndrome coronavirus 2, Calu-3, Calu-3, niclosamide 1.25 uM, replicates, read-out: %inhibition (plaque assay)) was 73.3% and the inhibition at 0.1 µM (SARS-CoV-2 [2]; Severe acute respiratory syndrome coronavirus 2, Calu-3, Calu-3 cells, Niclosamide 0.10 uM alone, replicates) was 53.3%. The inhibition at 0.2 µM (SARS-CoV-2 [2]; Severe acute respiratory syndrome coronavirus 2, Calu-3, Calu-3 cells, Niclosamide 0.20 uM alone, replicates) was 53.3%, the inhibition at 0.4 µM (SARS-CoV-2 [2]; Severe acute respiratory syndrome coronavirus 2, Calu-3, Calu-3 cells, Niclosamide 0.40 uM alone, replicates) was 60% and the IC50 (SARS-CoV-2 [2]; Severe acute respiratory syndrome coronavirus 2, Calu-3, 500 TCID50, plaque assay, single drug) was 200 nM. The inhibition at 0.00390625 µM (SARS-CoV-2 [3]; Severe acute respiratory syndrome coronavirus 2, Vero C1008, Vero E6, niclosamide 0.00390625 uM, replicates) was 11.5%, the inhibition at 0.015625 µM (SARS-CoV-2 [3]; Severe acute respiratory syndrome coronavirus 2, Vero C1008, Vero E6, niclosamide 0.015625 uM, replicates) was 23.2% and the inhibition at 0.03125 µM (SARS-CoV-2 [3]; Severe acute respiratory syndrome coronavirus 2, Vero C1008, Vero E6, niclosamide 0.03125 uM, replicates) was 23.7%. The inhibition at 0.0625 µM (SARS-CoV-2 [3]; Severe acute respiratory syndrome coronavirus 2, Vero C1008, Vero E6, niclosamide 0.0625 uM, replicates) was 40.1%, the inhibition at 0.125 µM (SARS-CoV-2 [3]; Severe acute respiratory syndrome coronavirus 2, Vero C1008, Vero E6, niclosamide 0.125 uM, replicates) was 84.6% and the IC50 (SARS-CoV-2 [3]; Severe acute respiratory syndrome coronavirus 2, Vero C1008, Vero E6, MOI 0.01, 48 hours, single drug) was 0.049 µM. The “%inhibition (plaque assay)” value (SARS-CoV-2 [3]; Vero E6, niclosamide 0.00390625 uM, replicates) was 9.45% and 9.72%, the “%inhibition (plaque assay)” value (SARS-CoV-2 [3]; Vero E6, niclosamide 0.0078125 uM, replicates) was 5.39% and 21.29% and 14.01% and the “%inhibition (plaque assay)” value (SARS-CoV-2 [3]; Vero E6, niclosamide 0.015625 uM, replicates) was 25.26% and 23.12%. For the same compound, the “%inhibition (plaque assay)” value (SARS-CoV-2 [3]; Vero E6, niclosamide 0.03125 uM, replicates) was 28.44% and 31.03%, the “%inhibition (plaque assay)” value (SARS-CoV-2 [3]; Vero E6, niclosamide 0.0625 uM, replicates) was 40.15% and 40.02% and the “%inhibition (plaque assay)” value (SARS-CoV-2 [3]; Vero E6, niclosamide 0.125 uM, replicates) was 97.12% and 94.56%. The “%cell viability” value (Calu-3 cells; niclosamide 0.019531 uM) was 102.92%, the “%cell viability” value (Calu-3 cells; niclosamide 0.039063 uM) was 104.17% and the “%cell viability” value (Calu-3 cells; niclosamide 0.078125 uM) was 109.86%. For the same compound, the “%cell viability” value (Calu-3 cells; niclosamide 0.15625 uM) was 107.64%, the “%cell viability” value (Calu-3 cells; niclosamide 0.3125 uM) was 99.17% and the “%cell viability” value (Calu-3 cells; niclosamide 0.625 uM) was 104.86%. For the same compound, the “%cell viability” value (Calu-3 cells; niclosamide 1.25 uM) was 97.36%, the “%cell viability” value (Calu-3 cells; niclosamide 2.5 uM) was 82.64% and the “%cell viability” value (Calu-3 cells; niclosamide 5 uM) was 54.44%. The cell viability (Calu-3 cells; Niclosamide 0.05 uM alone) was 96.54 and 92.66, the cell viability (Calu-3 cells; Niclosamide 0.10 uM alone) was 89.85 and 85.75 and the cell viability (Calu-3 cells; Niclosamide 0.20 uM alone) was 98.27 and 86.39. For the same compound, the cell viability (Calu-3 cells; Niclosamide 0.40 uM alone) was 103.02 and 98.49, the CC50 at 48 h [4] was 5620 nM and the viability at 48 h, 0.019531 uM ([4]; %cell viability, Calu-3, niclosamide 0.019531 uM, replicates) was 92.2%. For the same compound, the viability at 48 h, 0.039063 uM ([4]; %cell viability, Calu-3, niclosamide 0.039063 uM, replicates) was 102%, the viability at 48 h, 0.078125 uM ([4]; %cell viability, Calu-3, niclosamide 0.078125 uM, replicates) was 109% and the viability at 48 h, 0.15625 uM ([4]; %cell viability, Calu-3, niclosamide 0.15625 uM, replicates) was 100%. For the same compound, the viability at 48 h, 0.3125 uM ([4]; %cell viability, Calu-3, niclosamide 0.3125 uM, replicates) was 100%, the viability at 48 h, 0.625 uM ([4]; %cell viability, Calu-3, niclosamide 0.625 uM, replicates) was 107% and the viability at 48 h, 1.25 uM ([4]; %cell viability, Calu-3, niclosamide 1.25 uM, replicates) was 96.5%. For the same compound, the viability at 48 h, 2.5 uM ([4]; %cell viability, Calu-3, niclosamide 2.5 uM, replicates) was 85%, the viability at 48 h, 5 uM ([4]; %cell viability, Calu-3, niclosamide 5 uM, replicates) was 59.4% and the “%cell viability” value (Vero E6 cells; niclosamide 0.00390625 uM) was 92.84%. The “%cell viability” value (Vero E6 cells; niclosamide 0.0078125 uM) was 91.90%, the “%cell viability” value (Vero E6 cells; niclosamide 0.015625 uM) was 92.98% and the “%cell viability” value (Vero E6 cells; niclosamide 0.03125 uM) was 90.36%. For the same compound, the “%cell viability” value (Vero E6 cells; niclosamide 0.0625 uM) was 90.95%, the “%cell viability” value (Vero E6 cells; niclosamide 0.125 uM) was 88.11% and the “%cell viability” value (Vero E6 cells; niclosamide 0.25 uM) was 54.41%. The “%cell viability” value (Vero E6 cells; niclosamide 0.5 uM) was 25.91%, the cell viability (Vero E6 cells; Niclosamide 0.01125 uM alone) was 91.66 and 92.98 and the cell viability (Vero E6 cells; Niclosamide 0.0225 uM alone) was 92.73 and 90.36. The cell viability (Vero E6 cells; Niclosamide 0.045 uM alone) was 94.97 and 90.95, the cell viability (Vero E6 cells; Niclosamide 0.09 uM alone) was 89.48 and 90.50 and the CC50 at 48 h [5] was 290 nM. The viability at 48 h, 0.00390625 uM ([5]; %cell viability, Vero E6, niclosamide 0.00390625 uM, replicates) was 98.6%, the viability at 48 h, 0.0078125 uM ([5]; %cell viability, Vero E6, niclosamide 0.0078125 uM, replicates) was 97.7% and the viability at 48 h, 0.015625 uM ([5]; %cell viability, Vero E6, niclosamide 0.015625 uM, replicates) was 91.7%. The viability at 48 h, 0.03125 uM ([5]; %cell viability, Vero E6, niclosamide 0.03125 uM, replicates) was 92.7%, the viability at 48 h, 0.0625 uM ([5]; %cell viability, Vero E6, niclosamide 0.0625 uM, replicates) was 95% and the viability at 48 h, 0.125 uM ([5]; %cell viability, Vero E6, niclosamide 0.125 uM, replicates) was 91.3%. For the same compound, the viability at 48 h, 0.25 uM ([5]; %cell viability, Vero E6, niclosamide 0.25 uM, replicates) was 59.2% and the viability at 48 h, 0.5 uM ([5]; %cell viability, Vero E6, niclosamide 0.5 uM, replicates) was 20.1%.
